According to US8178654B2, “Estrogen receptor intramolecular folding systems, estrogen receptor intramolecular folding sensors, methods of use thereof, methods of detecting ER ligands, and methods of detecting ER agonists and antagonists” (Stanford University, priority 2006, dated 2012):

Columns and labels:
[1] = target: T1, hER281-549 (human estrogen receptor alpha ligand binding domain amino acids 281-549) (Homo sapiens, UniProt P03372, G400V); assay: Ligand-induced intramolecular folding split RLUC complementation, N-RLUC-hER281-549-C-RLUC in transfected cells; assay type: cell-based; details: for ligand-induced RLUC complementation signal (in words): transfected cells, 1 μM ligand, 18 hours
T1 construct: expressed in transfected cells; host or cells: 293T (transient); also transfected MCF7 and MDA-MB231
T1 sequence (P03372 281-549 G400V): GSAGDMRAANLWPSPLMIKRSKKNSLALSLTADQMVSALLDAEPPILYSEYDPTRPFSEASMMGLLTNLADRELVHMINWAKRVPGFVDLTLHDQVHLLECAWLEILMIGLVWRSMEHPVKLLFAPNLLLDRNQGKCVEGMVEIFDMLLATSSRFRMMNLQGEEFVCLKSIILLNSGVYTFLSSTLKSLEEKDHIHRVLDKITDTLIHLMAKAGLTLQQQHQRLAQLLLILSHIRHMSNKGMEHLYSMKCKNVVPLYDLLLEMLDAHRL
Procedure: (§1) For transfection, 200 ng DNA/well were used in 12 well culture plates. Volumes of Lipofectamine were as recommended by the manufacturer. The co-transfection of 10 ng/well Fluc DNA served as control for normalizing transfection. The cells were assayed after 18 hours of incubation at 37° C. with 5% CO2. The luminometry assay for Renilla Luciferase activity was performed as per protocol published previously. In brief, the cells were lysed in 200 μl of 1× passive lysis buffer (Promega, Madison, Wis.) by shaking for 15 min at room temperature. The cell lysates were centrifuged for 5 min at 10,000 rpm at 4° C. Twenty μl of supernatants were assayed by adding 1 μg of substrate coelenterazine in 100 μl of 0.05M sodium phosphate buffer (pH 7.0) followed by photon counting in the luminometer (Turner Designs, model T 20/20, Sunnyvale, Calif.) for 10 s. The readings were normalized by measuring the protein concentration in the cell lysates and also by measuring the FLUC activity. Activity of RLUC was represented as normalized relative light units (RLU) per microgram of protein.
The cells were assayed for RLUC activity after 18 hours of incubation. The results were normalized as mentioned in the previous experiments.
The results were normalized as mentioned in the previous experiments.
(§2) The ligand agonists and antagonists specific intramolecular folding were studied in ER positive and negative cell lines. […] The cells exposed to solvent DMSO served as control. The same samples were analysed by Western blot for the detection of the transfected protein level using anti-RLUC antibody using the method mentioned above.

[2] = target: T2, fusion protein N-RLUC-hER281-549-C-RLUC in 293T cells (Homo sapiens, UniProt P03372, G400V); assay: Western blot of sensor fusion protein level in transfected 293T cells (anti-RLUC antibody); assay type: cell-based; details: 1 μM ligand, 18 hours
T2 construct: expressed in transfected cells; host or cells: 293T (transient)
T2 sequence (P03372 281-549 G400V): T1 sequence (P03372 281-549 G400V)
Procedure: as §2

hERG521R = hERG521R (Homo sapiens, UniProt P03372, G400V/G521R); details: mutant human ER
hERG521R, sequence (P03372 281-595 G400V/G521R): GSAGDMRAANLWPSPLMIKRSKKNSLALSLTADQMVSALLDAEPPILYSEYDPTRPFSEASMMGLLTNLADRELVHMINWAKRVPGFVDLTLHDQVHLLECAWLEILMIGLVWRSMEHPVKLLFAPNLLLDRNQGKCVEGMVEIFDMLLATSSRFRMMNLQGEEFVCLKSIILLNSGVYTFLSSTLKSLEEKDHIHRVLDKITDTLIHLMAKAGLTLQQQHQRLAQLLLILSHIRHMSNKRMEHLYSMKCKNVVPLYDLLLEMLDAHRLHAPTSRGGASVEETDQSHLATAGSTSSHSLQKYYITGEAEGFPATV
Procedure: as §1

Compound	ligand-induced RLUC complementation signal (in words) [1]	expressed fusion (sensor) protein level [2]	also measured
COc1cccc2c1C(=O)c1c(O)c3c(c(O)c1C2=O)C[C@@](O)(C(=O)CO)C[C@@H]3O[C@H]1C[C@H](N)[C@H](O)[C@H](C)O1 [Doxirubicin]	not significantly different from cells transfected and not exposed to any ligands		
N.N.[Cl][Pt][Cl] [Cisplatinum]	not significantly different from cells transfected and not exposed to any ligands	significant reduction in the expressed fusion protein levels	
4-hydroxytamoxifen			receptor mediated RLUC complementation (hERG521R): 3-5%; RLUC complementation at different time points (in words) [1]: significant (P<0.0015) level of RLUC complementation; complemented Renilla Luciferase activity relative to cells before exposed to ligand [1]: 80±15 times; concentration dependence of RLUC activity (in words) [1]: increased RLUC activity
C[C@]12CC[C@@H]3c4ccc(O)cc4C[C@@H](CCCCCCCCC[S+]([O-])CCCC(F)(F)C(F)(F)F)[C@H]3[C@@H]1CC[C@@H]2O (stereo partly shown) [ICI182,780]		no significant level of degradation	
O=C(O[C@@H]1Cc2c(O)cc(O)cc2O[C@@H]1c1cc(O)c(O)c(O)c1)c1cc(O)c(O)c(O)c1 [Epigallocatechin gallate]	not significantly different from cells transfected and not exposed to any ligands	significant reduction in the expressed fusion protein levels	
